Assay: mn = molality of the nth substance listed, in mol/kg
Details: 101 kPa, Liquid, Alternating current cell with electrodes

[Cl-].[K+] [potassium chloride] + O
electrical conductivity [S/m]
Details | 278.15 K | 283.15 K | 298.15 K | 308.15 K | 318.15 K | 343.15 K | 363.15 K
m1 = 0.0001 | 0.0009464 | 0.001074 | 0.001487 | 0.001786 | 0.002105 | 0.002969 | 0.003716
m1 = 0.001 | 0.009198 | 0.0105 | 0.01471 | 0.01773 | 0.0207 | 0.02897 | 0.03587
m1 = 0.01 | 0.0891 | 0.1014 | 0.1408 | 0.1688 | 0.1977 | 0.2761 | 0.3426
m1 = 0.1 | 0.8184 | 0.9292 | 1.283 | 1.532 | 1.788 | 2.471 | 3.086
m1 = 0.5 | 3.875 | 4.375 | 5.92 | 6.981 | 8.107 | 11.23 | 13.48
m1 = 1 | 7.203 | 8.084 | 10.86 | 12.8 | 14.77 | 20.25 | 24.58

O=C([O-])O.[K+] [potassium bicarbonate] + O
electrical conductivity [S/m]
Details | 278.15 K | 283.15 K | 298.15 K | 308.15 K | 318.15 K | 343.15 K | 363.15 K
m1 = 0.001 | 0.007403 | 0.00834 | 0.01179 | 0.01416 | 0.01673 | 0.02401 | 0.03038
m1 = 0.00992 | 0.0687 | 0.07877 | 0.1107 | 0.1335 | 0.1573 | 0.2237 | 0.2794
m1 = 0.09998 | 0.6141 | 0.7003 | 0.9852 | 1.176 | 1.383 | 1.963 | 2.446
m1 = 0.5001 | 2.664 | 3.031 | 4.206 | 5.066 | 5.94 | 8.391 | 10.49
m1 = 0.9999 | 4.748 | 5.358 | 7.365 | 8.802 | 10.31 | 14.3 | 17.93

[Cl-].[Li+] [lithium chloride] + O
electrical conductivity [S/m]
Details | 278.15 K | 283.15 K | 298.15 K | 308.15 K | 318.15 K | 343.15 K | 363.15 K
m1 = 8.5e-05 | 0.0005986 | 0.0006826 | 0.0009588 | 0.00117 | 0.001388 | 0.001978 | 0.002483
m1 = 0.000952 | 0.006496 | 0.007487 | 0.01069 | 0.01311 | 0.01528 | 0.02191 | 0.02774
m1 = 0.00845 | 0.05562 | 0.06414 | 0.09167 | 0.1123 | 0.1315 | 0.1886 | 0.2366
m1 = 0.09523 | 0.5516 | 0.6326 | 0.9019 | 1.099 | 1.276 | 1.809 | 2.257
m1 = 0.9613 | 4.317 | 4.986 | 7.13 | 8.35 | 9.794 | 12.64 | 15.57

Cl.N [ammonium chloride (NH4Cl)] + O
electrical conductivity [S/m]
Details | 278.15 K | 283.15 K | 298.15 K | 308.15 K | 318.15 K | 343.15 K | 363.15 K
m1 = 0.000977 | 0.008892 | 0.01017 | 0.01441 | 0.01738 | 0.02024 | 0.0287 | 0.03591
m1 = 0.00965 | 0.0856 | 0.09786 | 0.1381 | 0.1671 | 0.1938 | 0.2731 | 0.3363
m1 = 0.09765 | 0.7999 | 0.9148 | 1.276 | 1.545 | 1.801 | 2.535 | 3.142
m1 = 0.4735 | 3.542 | 4.027 | 5.525 | 6.577 | 7.691 | 10.75 | 13.26
m1 = 1.034 | 7.301 | 8.293 | 11.12 | 13.13 | 15.36 | 21.55 | 25.35

[Ca+2].[Cl-].[Cl-] [calcium chloride] + O
electrical conductivity [S/m]
Details | 278.15 K | 283.15 K | 298.15 K | 308.15 K | 318.15 K | 343.15 K | 363.15 K
m1 = 7.6e-05 | 0.001256 | 0.001432 | 0.001998 | 0.002384 | 0.002814 | 0.004073 | 0.00517
m1 = 0.000755 | 0.01195 | 0.01369 | 0.01945 | 0.02351 | 0.02784 | 0.03992 | 0.05001
m1 = 0.00755 | 0.1103 | 0.1263 | 0.1792 | 0.216 | 0.2547 | 0.3636 | 0.4547
m1 = 0.0755 | 0.9331 | 1.062 | 1.496 | 1.793 | 2.11 | 2.982 | 3.694
m1 = 0.3773 | 4.179 | 4.73 | 6.531 | 7.792 | 9.092 | 12.66 | 15.58

O=S(=O)([O-])O.[K+] [hydrogen potassium sulfate] + O
electrical conductivity [S/m]
Details | 278.15 K | 283.15 K | 298.15 K | 308.15 K | 318.15 K | 343.15 K | 363.15 K
m1 = 0.000161 | 0.006027 | 0.006684 | 0.008772 | 0.01017 | 0.01154 | 0.01478 | 0.01675
m1 = 0.000981 | 0.03588 | 0.03981 | 0.05156 | 0.05895 | 0.06564 | 0.07958 | 0.0854
m1 = 0.01608 | 0.4635 | 0.5067 | 0.623 | 0.6784 | 0.7238 | 0.7958 | 0.8195
m1 = 0.09815 | 2.141 | 2.318 | 2.791 | 2.998 | 3.157 | 3.469 | 3.665
m1 = 0.2291 | 4.379 | 4.728 | 5.71 | 6.137 | 6.456 | 7.159 | 7.699

Source: the NIST ThermoML archive (doi:10.1021/je101012n)
